Key:
Vasopressin V1a receptor = Vasopressin V1a receptor (Homo sapiens, UniProt P37288); format: cell membranes, Membrane; settings: hek293; further: in other assays of this panel Not Active means under 50% inhibition at 10 µM
[1] = target: T1, Muscarinic acetylcholine receptor M5 (Homo sapiens, UniProt P08912); format: cell membranes, Membrane; settings: cho-k1; further: in other assays of this panel Not Active means under 50% inhibition at 10 µM
T1 sequence (P08912 whole entry): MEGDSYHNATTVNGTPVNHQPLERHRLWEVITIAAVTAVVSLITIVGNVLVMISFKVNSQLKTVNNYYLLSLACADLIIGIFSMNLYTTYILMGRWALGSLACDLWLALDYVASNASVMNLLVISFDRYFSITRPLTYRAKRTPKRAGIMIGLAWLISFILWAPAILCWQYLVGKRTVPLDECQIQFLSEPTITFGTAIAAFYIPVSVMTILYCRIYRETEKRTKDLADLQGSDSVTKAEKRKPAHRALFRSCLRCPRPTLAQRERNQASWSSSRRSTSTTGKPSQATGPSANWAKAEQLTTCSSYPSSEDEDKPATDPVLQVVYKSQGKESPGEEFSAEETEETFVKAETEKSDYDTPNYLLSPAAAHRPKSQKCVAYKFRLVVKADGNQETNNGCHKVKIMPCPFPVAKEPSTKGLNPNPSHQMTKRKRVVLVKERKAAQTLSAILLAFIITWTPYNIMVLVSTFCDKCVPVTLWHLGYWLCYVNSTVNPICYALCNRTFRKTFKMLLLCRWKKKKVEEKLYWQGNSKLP

Cytochrome P450 2C9 = Cytochrome P450 2C9 (Homo sapiens, UniProt P11712); settings: bti-tn-5b1-4; further: in other assays of this panel Not Active means under 50% inhibition at 10 µM
Sequence of Cytochrome P450 2C9 (P11712 whole entry): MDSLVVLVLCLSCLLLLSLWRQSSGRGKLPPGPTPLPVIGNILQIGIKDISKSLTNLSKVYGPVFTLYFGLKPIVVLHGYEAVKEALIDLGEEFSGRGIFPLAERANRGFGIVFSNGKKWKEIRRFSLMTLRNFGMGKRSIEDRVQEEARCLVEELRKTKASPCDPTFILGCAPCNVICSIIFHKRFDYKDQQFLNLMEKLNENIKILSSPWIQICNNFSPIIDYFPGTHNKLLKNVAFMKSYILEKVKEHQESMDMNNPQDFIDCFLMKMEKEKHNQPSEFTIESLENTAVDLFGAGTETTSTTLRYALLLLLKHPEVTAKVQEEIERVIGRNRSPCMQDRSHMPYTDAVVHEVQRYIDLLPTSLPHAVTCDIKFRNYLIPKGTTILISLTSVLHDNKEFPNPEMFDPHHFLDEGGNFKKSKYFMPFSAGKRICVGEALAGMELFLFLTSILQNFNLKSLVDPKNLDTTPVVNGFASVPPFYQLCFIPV

[2] = target: 5-hydroxytryptamine receptor 2B (Homo sapiens, UniProt P41595); format: cell membranes, CHO-K1, Membrane; settings: for Ki: read-out: Ki; on all read-outs here: in other assays of this panel Not Active means under 50% inhibition at 10 µM
Sequence of 5-hydroxytryptamine receptor 2B (P41595 whole entry): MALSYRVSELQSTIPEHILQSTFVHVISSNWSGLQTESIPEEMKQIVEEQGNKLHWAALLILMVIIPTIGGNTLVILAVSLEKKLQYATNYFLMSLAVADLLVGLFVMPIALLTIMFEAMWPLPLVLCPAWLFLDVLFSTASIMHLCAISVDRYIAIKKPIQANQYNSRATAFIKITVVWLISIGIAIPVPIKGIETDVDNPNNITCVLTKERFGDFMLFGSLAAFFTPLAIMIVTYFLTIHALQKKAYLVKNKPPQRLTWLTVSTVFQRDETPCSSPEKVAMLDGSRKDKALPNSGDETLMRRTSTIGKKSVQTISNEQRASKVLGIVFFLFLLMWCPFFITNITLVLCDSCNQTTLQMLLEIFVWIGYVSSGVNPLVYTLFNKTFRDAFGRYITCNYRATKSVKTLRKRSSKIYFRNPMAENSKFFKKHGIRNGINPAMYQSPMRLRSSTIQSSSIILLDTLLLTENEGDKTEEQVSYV

Cannabinoid receptor 1 = Cannabinoid receptor 1 (Homo sapiens, UniProt P21554); format: cell membranes, Membrane; settings: chem-1; further: in other assays of this panel Not Active means under 50% inhibition at 10 µM
Sequence of Cannabinoid receptor 1 (P21554 whole entry): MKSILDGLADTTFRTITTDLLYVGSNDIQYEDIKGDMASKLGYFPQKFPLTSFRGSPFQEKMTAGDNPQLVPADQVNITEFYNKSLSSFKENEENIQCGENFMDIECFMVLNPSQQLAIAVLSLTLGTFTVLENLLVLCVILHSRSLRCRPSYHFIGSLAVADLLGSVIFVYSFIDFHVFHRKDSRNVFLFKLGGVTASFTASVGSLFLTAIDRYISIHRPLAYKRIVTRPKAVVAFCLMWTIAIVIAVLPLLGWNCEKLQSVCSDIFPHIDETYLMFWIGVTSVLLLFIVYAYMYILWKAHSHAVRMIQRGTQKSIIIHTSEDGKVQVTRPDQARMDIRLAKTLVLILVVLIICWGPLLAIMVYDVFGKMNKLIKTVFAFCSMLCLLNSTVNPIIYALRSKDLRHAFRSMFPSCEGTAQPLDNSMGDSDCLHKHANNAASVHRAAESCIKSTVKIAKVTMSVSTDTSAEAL

[3] = DRUGMATRIX: beta-Lactamase enzyme inhibition (substrate: Nitrocefin); design: species or system Bacillus cereus; settings: Not Active = under 50% inhibition at 10 µM
[4] = DRUGMATRIX: GABAA, Chloride Channel, TBOB radioligand binding (ligand: [3H] TBOB); format: cell membranes, Rattus norvegicus, Wistar, Cerebral cortex, Membrane; settings: Not Active = under 50% inhibition at 10 µM
[5] = target: Delta-type opioid receptor (Homo sapiens, UniProt P41143); format: cell membranes, HEK293, Membrane; settings: hek293; further: in other assays of this panel Not Active means under 50% inhibition at 10 µM
Sequence of Delta-type opioid receptor (P41143 whole entry): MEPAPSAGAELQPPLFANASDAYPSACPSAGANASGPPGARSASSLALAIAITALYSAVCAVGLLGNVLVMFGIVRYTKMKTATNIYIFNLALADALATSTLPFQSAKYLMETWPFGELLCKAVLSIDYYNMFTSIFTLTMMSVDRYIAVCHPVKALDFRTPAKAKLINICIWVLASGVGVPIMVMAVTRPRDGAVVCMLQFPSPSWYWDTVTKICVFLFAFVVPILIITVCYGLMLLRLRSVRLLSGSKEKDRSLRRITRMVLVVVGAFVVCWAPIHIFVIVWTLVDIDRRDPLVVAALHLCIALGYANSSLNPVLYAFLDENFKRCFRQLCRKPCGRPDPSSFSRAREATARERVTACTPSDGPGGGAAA

Sequence of Vasopressin V1a receptor (P37288 whole entry): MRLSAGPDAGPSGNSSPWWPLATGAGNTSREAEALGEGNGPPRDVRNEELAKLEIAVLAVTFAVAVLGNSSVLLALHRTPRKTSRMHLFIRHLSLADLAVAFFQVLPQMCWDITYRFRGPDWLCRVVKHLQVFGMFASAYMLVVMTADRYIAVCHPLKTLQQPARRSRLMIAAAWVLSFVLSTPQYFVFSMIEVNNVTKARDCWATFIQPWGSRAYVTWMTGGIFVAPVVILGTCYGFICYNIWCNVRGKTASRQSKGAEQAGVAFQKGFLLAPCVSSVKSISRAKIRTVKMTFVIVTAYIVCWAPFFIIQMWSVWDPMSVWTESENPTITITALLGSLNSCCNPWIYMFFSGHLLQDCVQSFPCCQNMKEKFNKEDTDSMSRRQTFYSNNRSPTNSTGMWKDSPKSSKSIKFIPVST

Compound | IC50 (Vasopressin V1a receptor) | IC50 [1] | IC50 (Cytochrome P450 2C9) | Ki (Cytochrome P450 2C9) | IC50 ([2]; cho-k1) | IC50 (Cannabinoid receptor 1) | IC50 [3] | Ki [3] | IC50 [4] | Ki [4] | IC50 [5] | IC50 ([2]; read-out: IC50) [nM] | Ki [2] [nM]
CC[C@H]1OC(=O)[C@H](C)[C@@H](O[C@H]2C[C@@](C)(OC)[C@@H](O)[C@H](C)O2)[C@H](C)[C@@H](O[C@@H]2O[C@H](C)C[C@H](N(C)C)[C@H]2O)[C@](C)(O)C[C@@H](C)CN(C)[C@H](C)[C@@H](O)[C@]1(C)O [AZITHROMYCIN] | Not Active | Not Active | Not Active | Not Active | Not Active | Not Active | Not Active | Not Active | Not Active | Not Active | Not Active | – | –
CC(C)(C)c1ccc(S(=O)(=O)/C=C/C#N)cc1 [BAY-11-7085] | Not Active | Not Active | Not Active | Not Active | Not Active | Not Active | Not Active | Not Active | Not Active | Not Active | Not Active | – | –
O=c1cc(-c2ccccc2)oc2ccc3ccccc3c12 [BETA-NAPHTHOFLAVONE] | Not Active | Not Active | Not Active | Not Active | Not Active | Not Active | Not Active | Not Active | Not Active | Not Active | Not Active | – | –
CC(C)C[C@H]1C(=O)N2CCC[C@H]2[C@]2(O)O[C@](NC(=O)[C@@H]3C=C4c5cccc6[nH]c(Br)c(c56)C[C@H]4N(C)C3)(C(C)C)C(=O)N12 [BROMOCRIPTINE] | Not Active | Not Active | Not Active | Not Active | – | Not Active | Not Active | Not Active | Not Active | Not Active | Not Active | 8.32 | 5.29
CS(=O)(=O)OCCCCOS(C)(=O)=O [BUSULFAN] | Not Active | Not Active | Not Active | Not Active | Not Active | Not Active | Not Active | Not Active | Not Active | Not Active | Not Active | – | –
O=C(/C=C/c1ccc(O)c(O)c1)OCCc1ccccc1 [CAFFEIC ACID PHENETHYL ESTER] | Not Active | Not Active | Not Active | Not Active | Not Active | Not Active | Not Active | Not Active | Not Active | Not Active | Not Active | – | –
COc1cc(CNC(=O)CCCC/C=C/C(C)C)ccc1O [CAPSAICIN] | Not Active | Not Active | Not Active | Not Active | Not Active | Not Active | Not Active | Not Active | Not Active | Not Active | Not Active | – | –
NC(=O)N1c2ccccc2C=Cc2ccccc21 [CARBAMAZEPINE] | Not Active | Not Active | Not Active | Not Active | Not Active | Not Active | Not Active | Not Active | Not Active | Not Active | Not Active | – | –
CCOC(=O)n1ccn(C)c1=S [CARBIMAZOLE] | Not Active | Not Active | Not Active | Not Active | Not Active | Not Active | Not Active | Not Active | Not Active | Not Active | Not Active | – | –
Oc1ccccc1O [CATECHOL] | Not Active | Not Active | Not Active | Not Active | Not Active | Not Active | Not Active | Not Active | Not Active | Not Active | Not Active | – | –
CO[C@@]1(NC(=O)CSCC#N)C(=O)N2C(C(=O)O)=C(CSc3nnnn3C)CS[C@@H]21 [CEFMETAZOLE] | Not Active | Not Active | Not Active | Not Active | Not Active | Not Active | Not Active | Not Active | Not Active | Not Active | Not Active | – | –
CN(C(=O)CCCOc1ccc2[nH]c(=O)ccc2c1)C1CCCCC1 [CILOSTAMIDE] | Not Active | Not Active | Not Active | Not Active | Not Active | Not Active | Not Active | Not Active | Not Active | Not Active | Not Active | – | –
CC(C)(Oc1ccc(C2CC2(Cl)Cl)cc1)C(=O)O (stereo not given) [CIPROFIBRATE] | Not Active | Not Active | Not Active | Not Active | Not Active | Not Active | Not Active | Not Active | Not Active | Not Active | Not Active | – | –
Nc1nc(Cl)nc2c1ncn2[C@H]1C[C@H](O)[C@@H](CO)O1 [CLADRIBINE] | Not Active | Not Active | Not Active | Not Active | Not Active | Not Active | Not Active | Not Active | Not Active | Not Active | Not Active | – | –
CC[C@H]1OC(=O)[C@H](C)[C@@H](O[C@H]2C[C@@](C)(OC)[C@@H](O)[C@H](C)O2)[C@H](C)[C@@H](O[C@@H]2O[C@H](C)C[C@H](N(C)C)[C@H]2O)[C@](C)(OC)C[C@@H](C)C(=O)[C@H](C)[C@@H](O)[C@]1(C)O [CLARITHROMYCIN] | Not Active | Not Active | Not Active | Not Active | Not Active | Not Active | Not Active | Not Active | Not Active | Not Active | Not Active | – | –
O=C(O)c1cc(=O)c2c(OCC(O)COc3cccc4oc(C(=O)O)cc(=O)c34)cccc2o1 [CROMOLYN] | Not Active | Not Active | Not Active | Not Active | Not Active | Not Active | Not Active | Not Active | Not Active | Not Active | Not Active | – | –
O=P1(N(CCCl)CCCl)NCCCO1 (stereo not given) [CYCLOPHOSPHAMIDE ANHYDROUS] | Not Active | Not Active | Not Active | Not Active | Not Active | Not Active | Not Active | Not Active | Not Active | Not Active | Not Active | – | –
CC(=O)O[C@]1(C(C)=O)CC[C@H]2[C@@H]3C=C(Cl)C4=CC(=O)[C@@H]5C[C@@H]5[C@]4(C)[C@H]3CC[C@@]21C [CYPROTERONE ACETATE] | Not Active | Not Active | Not Active | Not Active | Not Active | Not Active | Not Active | Not Active | Not Active | Not Active | Not Active | – | –
Nc1nc(N)nc(NC2CC2)n1 [CYROMAZINE] | Not Active | Not Active | Not Active | Not Active | Not Active | Not Active | Not Active | Not Active | Not Active | Not Active | Not Active | – | –
CCN[C@@H](C)Cc1cccc(C(F)(F)F)c1 [DEXFENFLURAMINE] | Not Active | Not Active | Not Active | Not Active | Not Active | Not Active | Not Active | Not Active | Not Active | Not Active | Not Active | – | –
C[C@H](C(=O)O)c1cccc(C(=O)c2ccccc2)c1 [DEXKETOPROFEN] | Not Active | Not Active | Not Active | Not Active | Not Active | Not Active | Not Active | Not Active | Not Active | Not Active | Not Active | – | –
CN1C[C@H](C(=O)N[C@]2(C)O[C@@]3(O)[C@@H]4CCCN4C(=O)[C@H](Cc4ccccc4)N3C2=O)C[C@@H]2c3cccc4[nH]cc(c34)C[C@H]21 [DIHYDROERGOTAMINE] | Not Active | Not Active | Not Active | Not Active | – | Not Active | Not Active | Not Active | Not Active | Not Active | Not Active | 6.8 | 4.33
Cc1c(N(C)CS(=O)(=O)[O-])c(=O)n(-c2ccccc2)n1C.[Na+] [DIPYRONE SODIUM] | Not Active | Not Active | Not Active | Not Active | Not Active | Not Active | Not Active | Not Active | Not Active | Not Active | Not Active | – | –

Source: ChEMBL document CHEMBL1909046, “DrugMatrix in vitro pharmacology data”
